Test results taken from patent publication US20130165475A1, “DEUTERIUM-ENRICHED HETEROCYCLIC COMPOUNDS AS KINASE INHIBITORS” (ASCEPION PHARMACEUTICALS, INC., priority 2010, published 2013).
Structures can show the parent of a compound that is named as a salt.

Experiments:
c-Met = biological target: T1, c-Met (Homo sapiens, UniProt P08581); assay: c-Met cell-based assay (ELISA, phosphor-/total c-Met in transfected CHO cells, HGF stimulated); settings: compound at 100 nM; CHO cells transfected with full length c-Met; HGF 100 ng/mL
T1 construct: expressed in transfected cells; host or cells: CHO cells
T1 sequence (P08581 25-1390): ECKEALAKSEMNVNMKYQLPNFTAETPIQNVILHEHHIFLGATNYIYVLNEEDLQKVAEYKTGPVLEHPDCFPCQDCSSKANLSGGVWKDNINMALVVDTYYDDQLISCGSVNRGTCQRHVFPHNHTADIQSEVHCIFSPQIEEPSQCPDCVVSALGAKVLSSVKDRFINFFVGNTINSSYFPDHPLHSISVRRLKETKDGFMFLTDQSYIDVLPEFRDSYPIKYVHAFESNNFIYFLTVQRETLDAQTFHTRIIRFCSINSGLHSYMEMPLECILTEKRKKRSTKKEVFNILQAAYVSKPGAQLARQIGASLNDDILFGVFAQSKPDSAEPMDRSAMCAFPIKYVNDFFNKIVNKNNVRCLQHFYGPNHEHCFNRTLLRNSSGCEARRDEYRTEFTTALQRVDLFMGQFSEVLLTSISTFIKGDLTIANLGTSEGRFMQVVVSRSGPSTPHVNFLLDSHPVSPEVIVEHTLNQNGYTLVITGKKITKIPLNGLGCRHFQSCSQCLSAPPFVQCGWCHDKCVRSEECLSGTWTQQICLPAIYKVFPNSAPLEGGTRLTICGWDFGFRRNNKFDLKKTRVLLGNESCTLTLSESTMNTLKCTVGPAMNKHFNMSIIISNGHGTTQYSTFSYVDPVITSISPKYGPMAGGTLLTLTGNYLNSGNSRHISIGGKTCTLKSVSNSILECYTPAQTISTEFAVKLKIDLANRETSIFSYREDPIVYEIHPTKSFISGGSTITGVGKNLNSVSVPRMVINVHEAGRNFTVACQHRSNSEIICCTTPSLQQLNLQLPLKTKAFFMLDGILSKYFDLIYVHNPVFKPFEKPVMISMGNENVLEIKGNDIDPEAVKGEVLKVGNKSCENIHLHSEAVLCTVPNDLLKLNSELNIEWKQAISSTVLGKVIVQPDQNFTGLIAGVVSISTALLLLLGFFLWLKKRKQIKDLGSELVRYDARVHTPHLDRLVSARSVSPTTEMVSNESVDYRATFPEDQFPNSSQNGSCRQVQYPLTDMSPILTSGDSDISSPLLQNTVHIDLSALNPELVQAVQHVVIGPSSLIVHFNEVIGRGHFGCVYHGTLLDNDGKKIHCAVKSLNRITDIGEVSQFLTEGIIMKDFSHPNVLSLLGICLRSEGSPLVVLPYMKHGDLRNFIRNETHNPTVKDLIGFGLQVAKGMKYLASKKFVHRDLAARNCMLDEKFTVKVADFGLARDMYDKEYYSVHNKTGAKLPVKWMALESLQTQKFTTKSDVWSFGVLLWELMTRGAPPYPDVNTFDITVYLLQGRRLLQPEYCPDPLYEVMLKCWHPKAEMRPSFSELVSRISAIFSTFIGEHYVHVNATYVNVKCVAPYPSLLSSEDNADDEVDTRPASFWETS
Excerpt: A standard cell-based assay for c-Met kinase activity can be used to test or screen the compounds of this invention and to identify c-Met antagonists. In this example, ELISA kits (R&D Systems, Inc., Minneapolis, Minn. 55413, USA) were used.
The activity of c-Met in cells depended on its autophosphorylation level by it specific growth factor-Hepatocyte growth factor (HGF). In order to induce the cell to produce c-Met, full length of c-Met sequence was cloned into PC-DNA3.1 vector, the plasmid was then transfected into CHO cells. After 48 hours, the expression of c-Met in transfected CHO cells was confirmed by regular western blotting.
A compound to be tested was first dissolved in DMSO to a concentration of 10 mM and stored at −20° C. One day before the screening, CHO cells transfected with full length c-Met plasmid were grown in DMEM medium without the presence of serum. On the day of screening procedure, the compounds with various concentration in DMSO (from 0.5 nM to 500 nM) were added into DMEM medium, two hours later, Hepatocyte growth factor (HGF) was added into the medium at the concentration of 100 ng/mL to stimulate the production of phosphor-c-Met. Cell lysate from approximately 5×10^5 transfected CHO cells were reacted with anti-phosphor c-Met or anti-total c-Met antibody in 96 well plates, in the presence of detection antibody. The phosphor-c-Met or total c-Met were detected with Streptavidin-HRP (R&D Systems), followed by chemiluminescent detection. The level of c-Met kinase activity was quantified as the ratio between the amount of phosphor- and that of total c-Met proteins.

EphB4 = biological target: T2, EphB4 (Homo sapiens, UniProt P54760); assay: EphB4 cell-based assay (quantitative Western blotting, PC-3 cells, Ephrin-B2 stimulated); settings: compound at 100 nM; PC-3 human prostate cancer cells; Ephrin-B2 stimulation; read-out: % EphB4 kinase activity remains
T2 construct: EphB4 autophosphorylation in PC-3 human prostate cancer cells; host or cells: PC-3 human prostate cancer cells
T2 sequence (P54760 16-987): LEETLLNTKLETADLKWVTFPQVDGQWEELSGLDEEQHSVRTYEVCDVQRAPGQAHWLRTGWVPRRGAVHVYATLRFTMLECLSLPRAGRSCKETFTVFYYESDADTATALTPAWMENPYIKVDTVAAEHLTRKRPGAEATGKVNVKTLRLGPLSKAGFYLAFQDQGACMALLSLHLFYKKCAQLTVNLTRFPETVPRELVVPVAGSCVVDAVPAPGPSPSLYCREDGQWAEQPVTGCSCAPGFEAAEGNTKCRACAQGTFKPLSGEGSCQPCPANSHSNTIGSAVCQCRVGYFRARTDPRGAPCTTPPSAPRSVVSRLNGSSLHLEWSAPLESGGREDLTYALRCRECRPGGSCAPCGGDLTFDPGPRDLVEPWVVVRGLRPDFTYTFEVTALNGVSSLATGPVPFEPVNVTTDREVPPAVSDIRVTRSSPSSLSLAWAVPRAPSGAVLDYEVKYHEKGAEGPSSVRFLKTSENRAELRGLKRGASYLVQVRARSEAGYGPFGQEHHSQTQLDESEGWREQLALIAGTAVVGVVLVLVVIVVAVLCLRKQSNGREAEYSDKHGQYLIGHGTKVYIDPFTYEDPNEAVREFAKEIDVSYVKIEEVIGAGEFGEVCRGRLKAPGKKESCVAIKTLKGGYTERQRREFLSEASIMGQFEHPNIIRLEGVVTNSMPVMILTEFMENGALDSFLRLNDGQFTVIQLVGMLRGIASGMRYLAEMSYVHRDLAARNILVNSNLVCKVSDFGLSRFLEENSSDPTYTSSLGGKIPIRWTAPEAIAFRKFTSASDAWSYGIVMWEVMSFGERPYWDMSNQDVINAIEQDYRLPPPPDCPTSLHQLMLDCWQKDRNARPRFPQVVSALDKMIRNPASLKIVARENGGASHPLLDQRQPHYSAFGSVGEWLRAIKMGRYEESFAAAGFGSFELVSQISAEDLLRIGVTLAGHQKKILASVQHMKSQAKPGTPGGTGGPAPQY
Excerpt: A standard image-based quantitative Western blotting assay for EphB4 kinase activity can be used to test or screen the compounds of this invention and to identify EphB4 antagonists.
The kinase activity of EphB4 in cells depends on its autophosphorylation level stimulated by the binding to its ligand Ephrin-B2. High level of EphB4 autophosphorylation in PC-3 human prostate cancer cells (ATCC, USA) induced by the application of Ephrin-B2 to the cell culture can be observed by regular Western blotting assay.
A compound to be tested was first dissolved in DMSO to a concentration of 10 mM and stored at −20° C. On the day of screening procedure, the compound in DMSO was added into DMEM medium to a final concentration of 100 nM. Two hours later, Ephrin-B2 ([…]) was added into DMEM medium to stimulate the production of phosphor-EphB4. The phosphor-EphB4 was detected based on its molecular weight and with anti-phosphor protein antibody PY-20 in cell lysate from approximately 5×10^5 PC-3 cells by Western blotting followed by imaging quantification. The relative level of EphB4 kinase activity was quantified as the ratio between the amount of phosphor-EphB4 and that of total Actin proteins.

Mouse liver microsome = assay: Liver microsomal stability assay, mouse; assay type: in vitro ADME; set-up: key: A: the percentage of a compound remains is greater than that of its deuterium non-enriched counterpart; B: a result otherwise; settings: 40 μM, 37° C., 30 min, 1 mg/ml microsome proteins; class relative to deuterium non-enriched counterpart
Method: A standard liver microsomal stability assay can be used to test or screen the compounds of this invention and to identify compounds with enhanced metabolic stability due to the enrichment of deuterium in the compounds. Liver microsome proteins prepared from different species such as mouse and rat were obtained from a commercial source (Research Institute for Liver Diseases, Shanghai, China). The assay was conducted in 1.5% potassium hydrogenphosphate (K2HPO4) in the presence of liver microsome proteins at 1 mg/ml and supplemented with an […] (3.3 mM NADPH, 3.3 mM glucose-6-phosphate, 6 units/ml G6PDase, and 3.3 mM magnesium chloride). Test compound was added into the assay mixture to a final concentration of 40 μM and incubated at 37° C. for 0 or 30 minutes. The reaction was stopped by the addition of 20 μM Bifonazole/CAN. Samples were then centrifuged at 14000 rpm for 10 minutes to precipitate proteins. Supernatant were then transferred to microcentrifuge tubes and subject to reverse phase HPLC analysis to determine the concentration of test compound.
The percentage of compounds that remained in the assay reactions after a thirty-minute incubation at 37° C. is calculated as the ratio between the amount of compound remained after a thirty-minute and that after a zero-minute incubation.

remaining activity at 0.1 µM (EphB4)	% of compound remained at the 30th minutes, Mouse liver microsome (Mouse liver microsome)	SMILES	% C-Met kinase activity remains (c-Met)
≥ 70%	A	[2H]C([2H])(c1ccnc2[nH]ccc12)N1CCc2c(NC(=O)Nc3cccc(C)c3)cccc21 [Example 13, 1-[1-[Dideuterio(1H-pyrrolo[2,3-b]pyridin-4-yl)methyl]indolin-4-yl]-3-(m-tolyl)urea hydrochloride]	A (the percentage of kinase activity remains is below 70%)
< 70%	A	[2H]C([2H])(c1ccnc(N)c1)N1CCc2c(NC(=O)Nc3cc(Cl)ccc3OC)cccc21 [Example 1, 1-[1-[(2-Amino-4-pyridyl)-dideuteriomethyl]indolin-4-yl]-3-(5-chloro-2-methoxyphenyl)urea]	B (the percentage is greater or equal to 70%)
≥ 70%	A	[2H]C(c1c[nH]c2ncccc12)n1ccc2c(NC(=O)Nc3cc(Cl)ccc3OC([2H])([2H])[2H])cccc21 (stereo not drawn) [Example 16, 1-[5-chloro-2-(trideuteriomethoxy)phenyl]-3-[1-[deuterio(1H-pyrrolo[2,3-b]pyridin-3-yl)methyl]indol-4-yl]urea]	A (the percentage of kinase activity remains is below 70%)
< 70%	B	[2H]C([2H])([2H])Oc1ccc(Cl)cc1NC(=O)Nc1cccc2c1CCN2Cc1ccnc(N)c1 [Example 5, 1-[1-[(2-Amino-4-pyridyl)methyl]indolin-4-yl]-3-[5-chloro-2-(trideuteriomethoxy)phenyl]urea]	A (the percentage of kinase activity remains is below 70%)
≥ 70%	A	Cl.[2H]C([2H])([2H])Oc1ccc(Cl)cc1NC(=O)Nc1cccc2c1ccn2C([2H])([2H])c1ccnc2[nH]ccc12 [Example 8, 1-[5-chloro-2-(trideuteriomethoxy)phenyl]-3-[1-[dideuterio(1H-pyrrolo[2,3-b]pyridin-4-yl)methyl]indol-4-yl]urea hydrochloride]	A (the percentage of kinase activity remains is below 70%)
≥ 70%	A	[2H]C([2H])(c1ccnc2[nH]ccc12)N1CCc2c(NC(=O)Nc3cc(Cl)ccc3OC)cccc21 [Example 9, 1-(5-Chloro-2-methoxyphenyl)-3-[1-[dideuterio(1H-pyrrolo[2,3-b]pyridin-4-yl)methyl]indolin-4-yl]urea hydrochloride]	A (the percentage of kinase activity remains is below 70%)
< 70%	B	[2H]C([2H])([2H])Oc1ccc(Cl)cc1NC(=O)Nc1cccc2c1ccn2C([2H])([2H])c1ccnc(N)c1 [Example 4, 1-[1-[(2-amino-4-pyridyl)-dideuteriomethyl]indol-4-yl]-3-[5-chloro-2-(trideuteriomethoxy)phenyl]urea]	A (the percentage of kinase activity remains is below 70%)
< 70%	A	[2H]C([2H])(c1ccnc2[nH]ccc12)n1ccc2c(NC(=O)Nc3cccc(C)c3)cccc21 [Example 14, 1-[1-[dideuterio(1H-pyrrolo[2,3-b]pyridin-4-yl)methyl]indol-4-yl]-3-(m-tolyl)urea hydrochloride]	A (the percentage of kinase activity remains is below 70%)
< 70%	A	Cl.[2H]C([2H])(c1ccnc(N)c1)n1ccc2c(NC(=O)Nc3cc(Cl)ccc3OC)cccc21 [Example 2, 1-[1-[(2-amino-4-pyridyl)-dideuteriomethyl]indol-4-yl]-3-(5-chloro-2-methoxyphenyl)urea hydrochloride]	B (the percentage is greater or equal to 70%)
≥ 70%	A	[2H]C(c1c[nH]c2ncccc12)n1ccc2c(NC(=O)Nc3cccc(C)c3)cccc21 (stereo not drawn) [Example 22, 1-[1-[deuterio(1H-pyrrolo[2,3-b]pyridin-3-yl)methyl]indol-4-yl]-3-(m-tolyl)urea]	A (the percentage of kinase activity remains is below 70%)
